Measured values published in patent US11207290B2, “Combinations of cannabinoids and N-acylethanolamines” (SciSparc Ltd., priority 2015, dated 2021).
“Also recorded” adds a separate entry of the source.

Assays:
adult TS patients [1] = conditions: 2.5 mg THC per day titrated to 10 mg, vs placebo, visits 3 and 4, p<0.05; cited from earlier work
[2] = Body weight gain during the study; type: in vivo, mice; conditions: vs vehicle group 1M
Experimental: (§1) Animals—Mice, strain ICR, male, 8 weeks of age at study initiation. The average animal body weight at study initiation was in the range of 31.97±1.61 g. […] Animals were randomly allocated to individual cages on the day of reception. Animals were acclimated for seven to nine days.
(§2) Test item was administered […] at a dose volume of 10 ml/kg according to the doses in Table 1. Dosing was performed 15 minutes before each of the behavioral tests.
(§3) Statistical analysis—Numerical results were given as means±standard error of the mean. The results were subjected either to a T-test or to two-way ANOVA, followed by Bonferroni post-hoc contrast analysis between the groups where applicable. A probability of less than 5% (p<0.05) was regarded as significant.

[3] = widely considered; Buxbaum 1972; cited from earlier work
Mice, strain ICR [4] = assay: Tail pinch test (modified Haffner's method); type: in vivo; conditions: for Latency to respond: vs control
Experimental: as §1, §2
Tail pinch tests were performed as follows, according to the modified Haffner's method (as depicted in Takagi et al., Jpn. J. Pharmacol., 1966, 16, Pages 287-294)—Mice were pretested by pinching their tail base with an artery clip (1.5 mm width, constant force), and only the mice that show a nociceptive response such as biting the clip or vocalizing within 2 sec were used for experiments. […] To prevent tissue damage, the pressure stimuli was not applied for more than 10 sec. After drug treatments, the nociceptive response in the tail-pinch test was measured at varying intervals.
as §3

Mice, strain ICR [5] = assay: Open Field (OF) test; type: in vivo; conditions: 15 minute session; for Average animal velocity (uncontrolled movement): FIG. 2
Experimental: as §1, §2
Open Field (OF) tests were performed as follows—Fifteen minutes after test item/vehicle administration, mice were placed at the center of an open field box (43×43×40 cm) between 9 AM and 5 PM. On each side of the open field box, two frames placed at 2 and 5 cm height with 16 photocell beams per side ensure movement detection. The computer defined grid lines that divided the open field into two compartments: margin and center. Several variables were recorded during a 15 minute session of spontaneous activity including: time spent moving, traveled distance, time spent and number of visits to the central compartment.
as §3

adult TS patients [6] = conditions: single dose of 5, 7.5 or 10 mg THC compared with placebo, p=0.015; cited from earlier work

**Q.** What does the source list for CCCCCc1cc(O)c2c(c1)OC(C)(C)[C@@H]1CCC(C)=C[C@@H]21 [THC, (−)-trans-Δ9-tetrahydrocannabinol]?
**A.** Global Clinical Impression Scale (GCIS) (adult TS patients [1]): significant difference; Body weight (BW) gain ([2]; group 2M: THC 50 mg/kg, FIG. 1A): characteristic weight gain; Body weight (BW) gain ([2]; group 3M: THC 12.5 mg/kg, FIG. 1B): increased; also recorded: characteristic weight gain; Minimal effective dose of THC as an analgesic [3]: 20 mg/kg; Analgesic effect at 15′ post administration (Mice, strain ICR [4]; group 2M: THC 50 mg/kg): only group 4M exhibited an analgesic effect; Latency to respond (Mice, strain ICR [4]; group 2M: high dose THC 50 mg/kg, FIG. 4A): higher compared to the control; Analgesic effect at 15′ post administration (Mice, strain ICR [4]; group 3M: THC 12.5 mg/kg): exhibited an analgesic effect; Latency to respond (Mice, strain ICR [4]; group 3M: low dose THC 12.5 mg/kg, FIG. 4B): higher compared to the control; Average animal velocity (uncontrolled movement) (Mice, strain ICR [5]; group 2M: THC 50 mg/kg, vs control 1M): significantly increased the velocity; Total time spent in the center of an arena (measure of anxiety) (Mice, strain ICR [5]; group 2M: THC 50 mg/kg, FIG. 3): decreased the time spent in the center; Average animal velocity (uncontrolled movement) (Mice, strain ICR [5]; group 3M: THC 12.5 mg/kg): had no effect; Tourette Syndrome Symptom List (TSSL) self-rating (adult TS patients [6]): significant global tic improvement
